Experimental data from patent US11364246B2, “Compounds” (TMEM16A Limited, priority 2019, dated 2022).

These compounds were tested against human TMEM16A (Homo sapiens, UniProt Q5XXA6) (assay: Automated whole-cell patch clamp (Qpatch) assay to detect TMEM16A activity in recombinant cells). Settings: 3.33 μM test compound; % increase of baseline TMEM16A current; FRT cells stably expressing human TMEM16A (TMEM16Aabc variant); intracellular calcium at EC20.
Assay type: cell-based
Experimental: Automated Whole-Cell Patch Clamp Assay to Detect TMEM16A Activity in Recombinant Cells
Fisher rat thyroid (FRT) cells stably expressing human TMEM16A (TMEM16Aabc variant; Dr Luis Galietta, Insituto Giannina, Italy) were cultured in T-75 flasks in Hams F-12 media with Coon's modification (Sigma) supplemented with 10% (v/v) foetal bovine serum, penicillin-streptomycin (10,000 U/mL/10000 pg/mL), G-418 (750 pg/mL), L-glutamine (2 mM) and sodium bicarbonate solution (7.5% v/v). At −90% confluence cells were harvested for experiments by detachment with a 2:1 (v/v) mixture of Detachin (BMS Biotechnology) and 0.25% (w/v) trypsin-EDTA. Cells were diluted to a density of 3.5-4.5×10^6 cells/mL with media consisting of CHO-S-SFM (Sigma), 25 mM HEPES (Sigma) and Soy bean trypsin inhibitor (Sigma).
FRT-TMEM16A cells were whole-cell patch clamped using an automated planar patch clamp system (Qpatch, Sophion). Briefly, once high resistance (GOhm) seals were established between the cells and the planar recording array the patch was ruptured using suction pulses to establish the whole-cell recording configuration of the patch clamp technique. The assay employed the following solutions (all reagents Sigma): Intracellular solution (mM): N-methyl-D-glucamine 130, CaCh 18.2, MgCh 1. HEPES 10, EGTA 10, BAPTA 20, Mg-ATP 2, pH 7.25, 325 mOsm with sucrose.
Extracellular solution (mM): N-methyl-D-glucamine 130, CaCl2 2, MgCh 1, HEPES 10, pH 7.3, 320 mOsm with sucrose.
The intracellular solution buffers intracellular calcium at levels required to give −20% activation of the maximal TMEM16A mediated current (EC20 for calcium ions). Cells were voltage clamped at a holding potential of −70 mV and a combined voltage step (to +70 mV)/ramp (−90 my to +90 mV) was applied at 0.05 Hz. After a period of current stabilisation test compounds, solubilised in 100% (v/v) DMSO and subsequently diluted into extracellular solution, were applied to generate a cumulative concentration response curve. Each concentration of test compound was incubated for 5 minutes before addition of the next concentration. After the final concentration was tested a supramaximal concentration of either a known active positive modulator or the TMEM16A inhibitor. CaCCinhAOI (Del La Fuente et al, 2008) was added to define the upper and lower limits of the assay.
Compound activity was quantified by measuring the increase in current upon compound addition and expressing this as a percentage increase of baseline TMEM16A current level. […]
Peak TMEM16A current at +70 mV was plotted as a function of time over the assay period. Baseline current (IBL) was measured after a period of stabilisation. The increase in current for each compound addition was determined by taking the peak current during the incubation period and subtracting the current from the previous recording period and then expressing this as a percentage of the baseline current. […]
For each additional concentration tested the increase in current was determined by subtracting the current from the previous incubation period and normalising the baseline value—for test concentration 2 in FIG. 1 this is: (I[#2]−I[# ? /IBL)×100
The values for each test concentration were plotted as a cumulative function of concentration eg. for test concentration two this would be the sum of the peak changes measured during concentration one plus concentration two.

Structure (SMILES)	% Potentiation @ 3.33 μM Avg [%]
CC(C)(C)NC(=O)c1cc(NC(=O)[C@@H]2CCc3ccccc32)ccn1 (single isomer, unassigned) [Example 21a, N-tert-Butyl-4-[[(1R)-indane-1-carbonyl]amino]pyridine-2-carboxamide or N-tert-Butyl-4-[[(1S)-indane-1-carbonyl]amino]pyridine-2-carboxamide]	99
O=C(Cc1cc(Cl)ccc1O)Nc1ccnc(C(=O)N[C@@]2(CO)CCOC2)c1 (single isomer, unassigned) [Example 35b, 4-[[2-(5-Chloro-2-hydroxy-phenyl)acetyl]amino]-N-[(3R)-3-(hydroxymethyl)tetrahydrofuran-3-yl]pyridine-2-carboxamide or 4-[[2-(5-chloro-2-hydroxy-phenyl)acetyl]amino]-N-[(3S)-3-(hydroxymethyl)tetrahydrofuran-3-yl]pyridine-2-carboxamide]	190
CC(C)(C)NC(=O)c1cc(NC(=O)C2(c3cccc(Cl)c3)CC2)ccn1 [Example 5.31, N-tert-butyl-4-[[1-(3-chlorophenyl)cyclopropanecarbonyl]amino]pyridine-2-carboxamide]	145
O=C(Cc1cc(Cl)ccc1O)Nc1ccnc(C(=O)NC23CCC(F)(C2)C3)c1 [Example 44, 4-[[2-(5-Chloro-2-hydroxy-phenyl)acetyl]amino]-N-(4-fluoro-1-bicyclo[2.1.1]hexanyl)pyridine-2-carboxamide]	1
C#CC(C)(C)NC(=O)c1cc(NC(=O)Cc2cccc3cc[nH]c23)ccn1 [Example 79.3, N-(1,1-Dimethylprop-2-ynyl)-4-[[2-(1H-indol-7-yl)acetyl]amino]pyridine-2-carboxamide]	64
